Assays:
[1] = system: Botrytis cinerea; format: cell-based; conditions: 120 h, 25 ppm by volume, Vogel medium, 20° C., five days, dark, read-out: growth inhibition ratio
[2] = system: Fusarium graminearum; assay: microbe, parasite or virus in culture; format: cell-based; conditions: 96 h, read-out: growth inhibition ratio
[3] = system: Botrytis cinerea; assay: Control test of cucumber gray mold (sprayed young cucumber seedlings); format: in vivo; conditions: 96 h, four days after inoculation; for pest or weed control at 25 ppm: 25 ppm by mass spray; for pest or weed control at 125 ppm: 125 ppm by mass spray
Procedure: Then, the drug liquid was sprayed onto young cucumber seedlings cultivated in a nursery pot (variety “Jihai”-based, cotyledon stage), and then air-dried. […] They were left still in a moist room at 20° C. Four days after inoculation, leaves of the young cucumber seedlings were visually observed, and the control value was calculated from the lesion area ratio in accordance with the following equation. [formula]

[4] = system: Venturia inaequalis; assay: Control test of apple scab disease (sprayed young apple seedlings); format: in vivo; conditions: 125 ppm by mass spray, 12 to 14 days after inoculation
[5] = system: Erysiphe graminis f.sp.tritici; assay: Control test of wheat powdery mildew disease (sprayed young wheat seedlings); format: in vivo; conditions: Blumeria graminis, 144 h, 125 ppm by mass spray, six days after inoculation
[6] = system: Colletotrichum acutatum; assay: Fungicidal effect test against fungi causing apple anthracnose; conditions: 96 h, read-out: growth inhibition ratio
[7] = system: Glomerella cingulata; assay: Fungicidal effect test against fungi causing grape ripe rot disease; conditions: Colletotrichum gloeosporioides, 72 h, read-out: growth inhibition ratio

COC(=O)N(Cc1ccc(OC)cc1C)NC(=O)c1c(C)cncc1Oc1cccc(C2CC2)c1 [b-229]
≥ 75%: inhibition of growth at 25 ppm [1] | inhibition of growth at 25 ppm [2] | pest or weed control at 25 ppm [3] | pest or weed control at 125 ppm [3] | pest or weed control at 125 ppm [4] | pest or weed control at 125 ppm [5] | inhibition of growth at 25 ppm [6] | inhibition of growth at 25 ppm [7]

CCc1cncc(Oc2cccc(C3CC3)c2F)c1C(=O)NN(Cc1ccc(OC)cc1C)C(=O)OC [b-230]
≥ 75%: inhibition of growth at 25 ppm [1] | inhibition of growth at 25 ppm [2] | pest or weed control at 25 ppm [3] | pest or weed control at 125 ppm [3] | pest or weed control at 125 ppm [4] | pest or weed control at 125 ppm [5] | inhibition of growth at 25 ppm [6] | inhibition of growth at 25 ppm [7]

COC(=O)N(Cc1ccc(C)cc1C)NC(=O)c1c(Cl)cncc1Oc1cccc(Cl)c1F [b-231]
≥ 75%: inhibition of growth at 25 ppm [1] | inhibition of growth at 25 ppm [2] | pest or weed control at 25 ppm [3] | pest or weed control at 125 ppm [3] | pest or weed control at 125 ppm [4] | pest or weed control at 125 ppm [5] | inhibition of growth at 25 ppm [6] | inhibition of growth at 25 ppm [7]

Cc1ccc(CN(NC(=O)c2cc(C)nnc2Oc2cccc(C3CC3)c2F)C(=O)OC2COC2)c(C)c1 [b-232]
≥ 75%: inhibition of growth at 25 ppm [1] | inhibition of growth at 25 ppm [2] | pest or weed control at 25 ppm [3] | pest or weed control at 125 ppm [3] | pest or weed control at 125 ppm [4] | pest or weed control at 125 ppm [5] | inhibition of growth at 25 ppm [6] | inhibition of growth at 25 ppm [7]

Source: patent publication US20260198493A1, “HYDRAZIDE COMPOUND AND AGRICULTURAL/HORTICULTURAL FUNGICIDE” (Nippon Soda Co., Ltd., priority 2022, published 2026)
